Measurements published in US12268682B2, “Anticancer drug FL118 formulation for treatment of human cancer” (CANGET BIOTEKPHARMA, LLC, priority 2019, dated 2025).
Where two headings read alike, the source gives them in different places.

Assays:
MM cell lines = assay: BLI-based cytotoxicity assay using LUC-transduced MM cell lines; design: species or system human; conditions: two MM cell lines, BMMSCs or HS-5
Protocol: Cell lines and culture: Luciferase (LUC)-transduced MM cell lines RPMI 8226, JJN3, UM9, MM1.s, U266, L363, and OPM-2 were cultured in RPMI 1640 (Life Technologies), supplemented with 10% heat-inactivated HyClone FetalClone I serum (GE Healthcare Life Sciences) and (penicillin, 10.000 U/mL; streptomycin, […]; InVitrogen,). HS-5 was cultured in DMEM (Life Technologies), supplemented with heat-inactivated FBS (Sigma) and antibiotics.

ABCG2/BCRP = biological target: T1, ABCG2/BCRP (Homo sapiens, UniProt Q9UNQ0); conditions: cited from earlier work
T1 sequence (Q9UNQ0 1-655): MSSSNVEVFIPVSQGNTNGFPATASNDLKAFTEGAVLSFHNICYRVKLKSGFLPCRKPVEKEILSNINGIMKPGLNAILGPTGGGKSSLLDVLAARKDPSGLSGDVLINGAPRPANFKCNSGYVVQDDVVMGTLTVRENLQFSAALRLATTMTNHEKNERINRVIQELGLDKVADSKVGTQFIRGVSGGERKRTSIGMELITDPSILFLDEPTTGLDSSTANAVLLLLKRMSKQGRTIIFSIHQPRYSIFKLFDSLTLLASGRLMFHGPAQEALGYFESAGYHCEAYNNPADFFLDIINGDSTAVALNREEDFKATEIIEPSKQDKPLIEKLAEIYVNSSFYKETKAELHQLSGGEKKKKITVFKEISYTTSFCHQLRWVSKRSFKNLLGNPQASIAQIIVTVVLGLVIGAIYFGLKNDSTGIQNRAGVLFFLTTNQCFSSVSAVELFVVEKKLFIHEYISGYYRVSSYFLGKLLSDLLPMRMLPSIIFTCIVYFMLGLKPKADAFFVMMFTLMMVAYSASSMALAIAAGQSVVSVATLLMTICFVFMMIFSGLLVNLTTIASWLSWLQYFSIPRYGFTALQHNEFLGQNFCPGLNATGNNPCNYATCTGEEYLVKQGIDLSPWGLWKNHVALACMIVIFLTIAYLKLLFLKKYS

Pgp/MDR1 = Pgp/MDR1 (Homo sapiens, UniProt P08183); conditions: cited from earlier work
Chain of Pgp/MDR1 (P08183 whole entry): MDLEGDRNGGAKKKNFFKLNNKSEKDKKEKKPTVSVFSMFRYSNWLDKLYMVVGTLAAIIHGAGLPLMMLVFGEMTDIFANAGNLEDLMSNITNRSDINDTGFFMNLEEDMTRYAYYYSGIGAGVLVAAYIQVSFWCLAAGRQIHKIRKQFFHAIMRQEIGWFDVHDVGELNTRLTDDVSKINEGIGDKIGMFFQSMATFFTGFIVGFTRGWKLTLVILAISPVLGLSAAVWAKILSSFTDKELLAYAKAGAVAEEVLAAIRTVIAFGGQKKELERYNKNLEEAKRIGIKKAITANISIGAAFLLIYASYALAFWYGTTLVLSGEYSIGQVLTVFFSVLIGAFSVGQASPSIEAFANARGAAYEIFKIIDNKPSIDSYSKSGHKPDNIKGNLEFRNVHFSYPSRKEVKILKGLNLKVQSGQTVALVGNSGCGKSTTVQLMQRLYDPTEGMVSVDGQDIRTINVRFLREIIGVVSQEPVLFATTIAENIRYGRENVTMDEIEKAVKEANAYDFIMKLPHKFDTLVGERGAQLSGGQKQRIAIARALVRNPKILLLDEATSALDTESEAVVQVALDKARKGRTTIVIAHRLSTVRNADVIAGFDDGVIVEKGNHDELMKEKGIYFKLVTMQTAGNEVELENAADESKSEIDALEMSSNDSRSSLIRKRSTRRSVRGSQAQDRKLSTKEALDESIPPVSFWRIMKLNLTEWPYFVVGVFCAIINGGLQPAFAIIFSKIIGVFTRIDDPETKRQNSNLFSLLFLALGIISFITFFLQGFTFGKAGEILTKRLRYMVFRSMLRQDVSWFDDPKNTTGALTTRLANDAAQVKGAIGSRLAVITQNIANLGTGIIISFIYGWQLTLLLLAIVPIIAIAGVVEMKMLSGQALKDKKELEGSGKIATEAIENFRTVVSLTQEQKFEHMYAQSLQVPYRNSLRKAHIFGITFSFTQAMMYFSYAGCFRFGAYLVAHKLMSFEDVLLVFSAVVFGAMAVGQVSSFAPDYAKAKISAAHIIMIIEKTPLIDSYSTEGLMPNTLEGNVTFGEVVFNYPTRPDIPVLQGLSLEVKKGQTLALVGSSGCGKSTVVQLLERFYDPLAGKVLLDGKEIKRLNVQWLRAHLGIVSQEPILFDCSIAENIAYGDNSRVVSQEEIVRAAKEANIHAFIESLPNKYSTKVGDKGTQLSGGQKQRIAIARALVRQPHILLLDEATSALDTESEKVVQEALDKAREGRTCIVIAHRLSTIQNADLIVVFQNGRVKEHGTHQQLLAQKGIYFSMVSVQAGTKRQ

MM cells = conditions: previously demonstrated; cited from earlier work

Compound | lysis of MM cell lines by the drug upon co-culture with stromal cells (MM cell lines) | substrate of efflux pump ABCG2/BCRP (ABCG2/BCRP) | substrate of efflux pump Pgp/MDR1 (Pgp/MDR1) | further results
CC(C)C[C@H](NC(=O)[C@H](Cc1ccccc1)NC(=O)c1cnccn1)B(O)O [bortezomib, reference compound] | significantly inhibited | – | – | –
CCc1c2c(nc3ccc(OC(=O)N4CCC(N5CCCCC5)CC4)cc13)-c1cc3c(c(=O)n1C2)COC(=O)[C@]3(O)CC [irinotecan] | – | substrates | substrates | –
COc1cccc2c1C(=O)c1c(O)c3c(c(O)c1C2=O)C[C@@](O)(C(=O)CO)C[C@@H]3O[C@H]1C[C@H](N)[C@H](O)[C@H](C)O1 [doxorubicin, reference compound] | significantly inhibited | – | – | –
CC[C@@]1(O)C(=O)OCc2c1cc1n(c2=O)Cc2cc3c(CN(C)C)c(O)ccc3nc2-1 [topotecan] | – | substrates | substrates | –
COCCn1c2c([n+](Cc3cnccn3)c1C)C(=O)c1ccccc1C2=O [YM155] | – | – | – | modulation of BMMSC-mediated protection against CTLs and daratumumab-dependent ADCC (MM cells): effective modulation
CCc1c2c(nc3ccc(O)cc13)-c1cc3c(c(=O)n1C2)COC(=O)[C@]3(O)CC [SN-38] | – | – | – | substrate of efflux pump ABCG2/BCRP (ABCG2/BCRP; not told): substrates; substrate of efflux pump Pgp/MDR1 (Pgp/MDR1; not told): substrates
